This note sets out measurements from patent publication US20230398153A1, “A METHOD FOR EFFICIENT MICROGLIA REPLACEMENT” (The Board of Trustees of the Leland Stanford Junior …, priority 2020, published 2023).

Assay [1] relates to myeloid cells of the spinal cord. As to the kind of experiment: Microglia replacement in the spinal cord after BMT+PLX protocol. In kind it is in vivo, mouse. Conditions: PLX5622 treated group. An excerpt: FIG. 21. Efficient microglia replacement in the spinal cord following our BMT+PLX protocol.
Many CNS diseases affect primarily the spinal cord. To evaluate whether our microglia replacement protocol is truly CNS-wide we characterized the spinal cords following a replacement as described above. Indeed, when using GFP-expressing donor cells we were able to identify a high and robust chimerism of GFP-positive, transplanted cell among the myeloid cells of the spinal cord (FIG. 21),

For assay [2], the system named is endogenous microglia. As to the kind of experiment: Direct intracerebral injection of GFP bone marrow cells with or without PLX5622 pre-treatment. Conditions: 21-day PLX5622 pre-treatment; 14 days post IC injection. The format is in vivo, mouse. The procedure:
FIG. 1. Microglia replacement after bone marrow transplantation is a slow, inefficient and variable process. (A) Schematic overview of bone marrow transplantation (HSCT). Recipient mice were received intraperitoneal (IP) injection of busulfan for 5 days at 25 mg/kg/day (i.e. 125 mg/kg total dose) and then transplanted with GFP-expressing bone marrow cells via intravenous (IV) injection. Donor chimerism in peripheral blood (PB) and brain myeloid cells was analyzed at the indicated time points. (B and C) Donor chimerism in PB leukocytes (CD45+ cells) and brain myeloid cells (CD45+CD11b+ cells) was analyzed by flow cytometry at the indicated time point. […] GFP chimerism in PB leukocytes (B) (Mean±SEM, n=5-20/time point, ***p<0.001, ns: not significant, ANOVA). GFP chimerism in brain myeloid cells (C) (Mean±SEM, n=5/time point, *p<0.05, **p<0.01, ns: not significant, ANOVA). (D) Flow cytometry analysis of GFP+bone marrow cells 14 days after direct intracerebral (IC) injection with (bottom) and without (top) PLX5622 pre-treatment of recipient mice. […] (F) Quantification of transplanted GFP+bone marrow cells in coronal brain sections. […] Horizontal bars represent mean values (n=3/group, 3 brain slices/animal were quantified. **p<0.01, ***p<0.001, Student's t-test). […] (H) Microglia chimerism was analyzed by flow cytometry 14 days post IV injection. […]

Regarding `COc1ncc(F)cc1CNc1ccc(Cc2c[nH]c3ncc(C)cc23)c(F)n1` [PLX5622], the “myeloid cells GFP+ in total spinal cord by flow cytometry” value in assay [1] was 90%. Moreover, the “fate of bone marrow cells injected into the brain” value in assay [2] is “adopted microglia-like morphologies, expressed the microglial marker Iba-1, were more numerous, and dispersed wider into the brain parenchyma”.
